According to ChEMBL document CHEMBL2390840, “An analysis of the synthetic tryptamines AMT and 5-MeO-DALT: emerging 'Novel Psychoactive Drugs'” (Bioorg Med Chem Lett, 2013):

Tests used:
[1] = target: Muscarinic acetylcholine receptor M1 (Homo sapiens, UniProt P11229); assay: Displacement of [3H]QNB from human recombinant muscarinic M1 receptor expressed in CHO cells after 1 to […] by scintillation counting analysis; type: cell-based
[2] = target: T1, Sodium-dependent serotonin transporter (Homo sapiens, UniProt P31645); type: cell-based, HEK293
T1 sequence (P31645 whole entry): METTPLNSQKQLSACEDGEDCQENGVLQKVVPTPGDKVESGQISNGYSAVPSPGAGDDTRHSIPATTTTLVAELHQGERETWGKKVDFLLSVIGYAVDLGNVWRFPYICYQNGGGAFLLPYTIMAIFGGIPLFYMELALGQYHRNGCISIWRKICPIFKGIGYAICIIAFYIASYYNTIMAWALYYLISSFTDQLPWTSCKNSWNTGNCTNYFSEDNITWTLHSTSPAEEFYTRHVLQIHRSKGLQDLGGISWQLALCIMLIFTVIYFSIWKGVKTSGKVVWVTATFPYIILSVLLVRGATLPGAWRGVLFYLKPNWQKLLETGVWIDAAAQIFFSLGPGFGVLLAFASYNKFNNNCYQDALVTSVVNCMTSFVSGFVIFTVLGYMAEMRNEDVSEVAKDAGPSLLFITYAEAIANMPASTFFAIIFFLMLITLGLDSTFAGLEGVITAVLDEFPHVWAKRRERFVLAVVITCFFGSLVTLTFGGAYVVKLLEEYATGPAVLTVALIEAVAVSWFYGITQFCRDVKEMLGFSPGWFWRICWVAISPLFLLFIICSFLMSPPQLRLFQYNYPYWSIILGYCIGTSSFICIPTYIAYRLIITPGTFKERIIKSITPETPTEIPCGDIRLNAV

[3] = target: T2, 5-hydroxytryptamine receptor 2C (Homo sapiens, UniProt P28335); assay: Displacement of [3H]Mesulergine from human recombinant 5-HT2C receptor expressed in HEK293 cells coexpressing FLP-IN after 1 to […] by scintillation counting analysis; type: cell-based
T2 sequence (P28335 whole entry): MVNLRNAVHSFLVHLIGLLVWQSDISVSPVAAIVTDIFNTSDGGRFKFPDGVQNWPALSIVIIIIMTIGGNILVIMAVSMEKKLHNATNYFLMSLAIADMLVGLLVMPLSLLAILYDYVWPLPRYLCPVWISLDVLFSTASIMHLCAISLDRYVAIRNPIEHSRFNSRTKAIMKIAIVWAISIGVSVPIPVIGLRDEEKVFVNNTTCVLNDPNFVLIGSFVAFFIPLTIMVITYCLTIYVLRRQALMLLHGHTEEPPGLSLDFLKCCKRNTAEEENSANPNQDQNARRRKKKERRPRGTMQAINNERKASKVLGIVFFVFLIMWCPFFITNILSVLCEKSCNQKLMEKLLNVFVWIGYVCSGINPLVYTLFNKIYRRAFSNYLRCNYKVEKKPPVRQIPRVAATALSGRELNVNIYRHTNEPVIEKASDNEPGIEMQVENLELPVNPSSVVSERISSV

D(1A) dopamine receptor = D(1A) dopamine receptor (Homo sapiens, UniProt P21728); assay: Displacement of […] from human recombinant dopamine D1 receptor expressed in HEK293 cells after 1 to […] by scintillation counting analysis; type: cell-based
Sequence of D(1A) dopamine receptor (P21728 whole entry): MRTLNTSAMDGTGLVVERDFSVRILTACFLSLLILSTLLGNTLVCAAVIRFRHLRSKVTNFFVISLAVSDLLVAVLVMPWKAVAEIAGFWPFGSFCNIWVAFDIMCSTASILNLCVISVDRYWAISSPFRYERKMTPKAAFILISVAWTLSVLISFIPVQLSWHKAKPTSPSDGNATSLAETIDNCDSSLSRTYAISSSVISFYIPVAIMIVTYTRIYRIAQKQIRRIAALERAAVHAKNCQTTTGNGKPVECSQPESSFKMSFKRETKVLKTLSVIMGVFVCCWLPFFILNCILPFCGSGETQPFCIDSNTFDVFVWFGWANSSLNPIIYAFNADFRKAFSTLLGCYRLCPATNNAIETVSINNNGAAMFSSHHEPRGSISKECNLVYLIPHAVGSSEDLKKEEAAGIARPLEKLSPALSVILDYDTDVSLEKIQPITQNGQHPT

[4] = target: Muscarinic acetylcholine receptor M5 (Homo sapiens, UniProt P08912); assay: Displacement of [3H]QNB from human recombinant muscarinic M5 receptor expressed in CHO cells after 1 to […] by scintillation counting analysis; type: cell-based
Sequence of Muscarinic acetylcholine receptor M5 (P08912 whole entry): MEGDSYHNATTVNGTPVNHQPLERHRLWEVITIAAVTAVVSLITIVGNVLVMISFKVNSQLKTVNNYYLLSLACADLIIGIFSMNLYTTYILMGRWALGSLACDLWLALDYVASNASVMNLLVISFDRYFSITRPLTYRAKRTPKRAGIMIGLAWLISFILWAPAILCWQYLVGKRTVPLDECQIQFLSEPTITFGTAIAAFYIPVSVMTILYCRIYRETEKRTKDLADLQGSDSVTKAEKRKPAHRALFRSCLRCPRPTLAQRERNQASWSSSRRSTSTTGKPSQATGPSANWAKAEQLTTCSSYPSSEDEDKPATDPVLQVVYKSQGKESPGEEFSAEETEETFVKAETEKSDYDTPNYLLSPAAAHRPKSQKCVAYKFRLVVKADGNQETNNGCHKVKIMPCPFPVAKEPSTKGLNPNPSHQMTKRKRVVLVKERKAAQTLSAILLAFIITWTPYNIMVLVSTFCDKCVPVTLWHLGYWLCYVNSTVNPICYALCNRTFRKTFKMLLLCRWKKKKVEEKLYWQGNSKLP

[5] = target: 5-hydroxytryptamine receptor 6 (Homo sapiens, UniProt P50406); assay: Displacement of [3H]LSD from human recombinant 5-HT6 receptor expressed in HEK293 cells after 1 to […] by scintillation counting analysis; type: cell-based
Sequence of 5-hydroxytryptamine receptor 6 (P50406 whole entry): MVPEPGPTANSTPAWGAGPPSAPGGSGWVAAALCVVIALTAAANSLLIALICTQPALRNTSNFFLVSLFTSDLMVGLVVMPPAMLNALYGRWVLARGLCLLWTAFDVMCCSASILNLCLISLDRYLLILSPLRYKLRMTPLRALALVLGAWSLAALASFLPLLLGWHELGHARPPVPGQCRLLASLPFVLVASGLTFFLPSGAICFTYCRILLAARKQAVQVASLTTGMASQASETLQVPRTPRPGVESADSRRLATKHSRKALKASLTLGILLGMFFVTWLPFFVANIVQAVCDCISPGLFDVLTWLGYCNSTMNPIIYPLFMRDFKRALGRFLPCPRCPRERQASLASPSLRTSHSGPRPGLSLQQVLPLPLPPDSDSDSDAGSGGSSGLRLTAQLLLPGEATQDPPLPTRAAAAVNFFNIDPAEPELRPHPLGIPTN

[6] = target: Delta-type opioid receptor (Homo sapiens, UniProt P41143); assay: Displacement of [3H]DADLE from human recombinant delta opioid receptor receptor expressed in HEK293 cells after 1 to […] by scintillation counting analysis; type: cell-based
[7] = target: Nicotinic acetylcholine receptor alpha2/beta4 (Homo sapiens, UniProt P02708+P30926); assay: Displacement of [3H]Epibatidine from human recombinant alpha2beta4 nACh receptor expressed in HEK293 cells after 1 to […] by scintillation counting analysis; type: cell-based
[8] = target: 5-hydroxytryptamine receptor 3A (Homo sapiens, UniProt P46098); assay: Displacement of [3H]LY278584 from human recombinant 5-HT3 receptor expressed in HEK293T cells after 1 to […] by scintillation counting analysis; type: cell-based, HEK-293T
Sequence of 5-hydroxytryptamine receptor 3A (P46098 whole entry): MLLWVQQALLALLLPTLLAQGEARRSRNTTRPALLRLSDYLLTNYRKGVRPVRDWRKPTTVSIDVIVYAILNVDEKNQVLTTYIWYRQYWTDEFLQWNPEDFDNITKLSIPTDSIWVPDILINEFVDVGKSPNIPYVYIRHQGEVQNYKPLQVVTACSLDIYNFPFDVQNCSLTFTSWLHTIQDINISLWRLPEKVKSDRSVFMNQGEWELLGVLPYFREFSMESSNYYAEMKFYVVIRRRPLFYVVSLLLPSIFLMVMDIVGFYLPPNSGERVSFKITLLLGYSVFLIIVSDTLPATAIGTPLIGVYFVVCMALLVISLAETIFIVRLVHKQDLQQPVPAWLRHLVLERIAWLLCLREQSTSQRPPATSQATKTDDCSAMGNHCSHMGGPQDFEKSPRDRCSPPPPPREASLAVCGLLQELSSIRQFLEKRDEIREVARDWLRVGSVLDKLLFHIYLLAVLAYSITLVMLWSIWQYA

Cannabinoid receptor 2 = Cannabinoid receptor 2 (Homo sapiens, UniProt P34972); assay: Displacement of [3H]CP55940 from human recombinant CB2 receptor expressed in HEK293 cells coexpressing FLP-IN after 1 to […] by scintillation counting analysis; type: cell-based
Histamine H3 receptor = Histamine H3 receptor (Homo sapiens, UniProt Q9Y5N1); assay: Displacement of [3H]alpha-methylhistamine from human recombinant histamine H3 receptor expressed in HEK293 cells after 1 to […] by scintillation counting analysis; type: cell-based
[9] = target: Beta-2 adrenergic receptor (Homo sapiens, UniProt P07550); assay: Displacement of [125I]Iodopindolol from human recombinant adrenergic beta2 receptor expressed in HEK293 cells coexpressing FLP-IN after 1 to […] by scintillation counting analysis; type: cell-based
Sequence of Beta-2 adrenergic receptor (P07550 whole entry): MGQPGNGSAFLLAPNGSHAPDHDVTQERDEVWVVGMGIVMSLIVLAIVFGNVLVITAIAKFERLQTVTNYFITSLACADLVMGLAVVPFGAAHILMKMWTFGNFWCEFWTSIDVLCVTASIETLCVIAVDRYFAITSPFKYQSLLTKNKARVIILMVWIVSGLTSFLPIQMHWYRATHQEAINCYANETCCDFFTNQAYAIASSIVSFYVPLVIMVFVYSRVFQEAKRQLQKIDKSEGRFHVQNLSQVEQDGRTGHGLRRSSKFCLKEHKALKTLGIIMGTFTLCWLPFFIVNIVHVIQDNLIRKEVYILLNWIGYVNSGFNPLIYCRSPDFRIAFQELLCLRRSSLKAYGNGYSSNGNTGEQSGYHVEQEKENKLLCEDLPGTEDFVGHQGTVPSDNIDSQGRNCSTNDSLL

Translocator protein = Translocator protein (Rattus norvegicus, UniProt P16257); assay: Displacement of [3H]PK11195 from peripheral benzodiazepine receptor in rat brain after 1 to […] by scintillation counting analysis; type: tissue-based
Sequence of Translocator protein (P16257 whole entry, looked up): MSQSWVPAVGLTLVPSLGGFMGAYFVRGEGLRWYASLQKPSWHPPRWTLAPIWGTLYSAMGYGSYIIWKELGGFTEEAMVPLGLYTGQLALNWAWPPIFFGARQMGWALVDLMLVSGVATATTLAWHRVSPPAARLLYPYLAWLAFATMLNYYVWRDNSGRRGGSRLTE

Histamine H2 receptor = Histamine H2 receptor (Homo sapiens, UniProt P25021); assay: Displacement of [3H]Tiotidine from human recombinant histamine H2 receptor expressed in HEK293 cells after 1 to […] by scintillation counting analysis; type: cell-based
[10] = target: T1, Sodium-dependent serotonin transporter; assay: Displacement of [3H]Citalopram from human recombinant serotonin transporter expressed in HEK293 cells after 1 to […] by scintillation counting analysis; type: cell-based
[11] = target: Muscarinic acetylcholine receptor M3 (Homo sapiens, UniProt P20309); assay: Displacement of [3H]QNB from human recombinant muscarinic M3 receptor expressed in CHO cells after 1 to […] by scintillation counting analysis; type: cell-based
[12] = target: 5-hydroxytryptamine receptor 2A (Homo sapiens, UniProt P28223); assay: Agonist activity at human 5-HT2A receptor expressed in HEK293 cells assessed as increase in calcium mobilization by FLIPR assay relative to 5-HT; type: functional, cell-based
[13] = target: Neuronal acetylcholine receptor; alpha4/beta4 (Homo sapiens, UniProt P30926+P43681); assay: Displacement of [3H]Epibatidine from human recombinant alpha4beta4 nACh receptor expressed in HEK293 cells after 1 to […] by scintillation counting analysis; type: cell-based
[14] = target: Sigma non-opioid intracellular receptor 1 (Cavia porcellus, UniProt Q60492); assay: Displacement of [3H]Pentazocine from guinea pig sigma 1 receptor after 1 to […] by scintillation counting analysis
Sequence of Sigma non-opioid intracellular receptor 1 (Q60492 whole entry): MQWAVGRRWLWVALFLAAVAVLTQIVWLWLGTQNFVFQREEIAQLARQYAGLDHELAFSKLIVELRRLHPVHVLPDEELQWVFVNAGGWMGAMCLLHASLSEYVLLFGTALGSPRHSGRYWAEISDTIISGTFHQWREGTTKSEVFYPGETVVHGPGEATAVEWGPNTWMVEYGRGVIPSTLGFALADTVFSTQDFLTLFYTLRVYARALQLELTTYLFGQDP

[15] = target: T3, 5-hydroxytryptamine receptor 2B (Homo sapiens, UniProt P41595); assay: Displacement of [3H]LSD from human recombinant 5-HT2B receptor expressed in HEK293 cells after 1 to […] by scintillation counting analysis; type: cell-based
T3 sequence (P41595 whole entry): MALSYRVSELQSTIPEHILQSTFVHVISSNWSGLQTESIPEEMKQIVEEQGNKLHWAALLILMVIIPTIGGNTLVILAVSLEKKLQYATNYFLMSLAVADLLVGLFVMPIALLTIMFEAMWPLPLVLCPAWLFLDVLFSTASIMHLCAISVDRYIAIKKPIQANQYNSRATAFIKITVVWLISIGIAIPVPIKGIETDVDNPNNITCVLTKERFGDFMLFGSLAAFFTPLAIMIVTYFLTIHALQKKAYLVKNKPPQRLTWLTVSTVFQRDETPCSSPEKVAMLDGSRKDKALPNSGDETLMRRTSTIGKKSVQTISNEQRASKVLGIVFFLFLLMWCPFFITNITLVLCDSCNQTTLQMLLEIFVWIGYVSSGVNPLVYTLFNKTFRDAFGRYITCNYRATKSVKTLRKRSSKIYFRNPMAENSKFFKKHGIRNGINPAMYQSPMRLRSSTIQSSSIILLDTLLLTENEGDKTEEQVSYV

[16] = target: Beta-1 adrenergic receptor (Homo sapiens, UniProt P08588); assay: Displacement of [125I]Iodopindolol from human recombinant adrenergic beta1 receptor expressed in CHO cells coexpressing FLP-IN after 1 to […] by scintillation counting analysis; type: cell-based
Histamine H4 receptor = Histamine H4 receptor (Homo sapiens, UniProt Q9H3N8); assay: Displacement of [3H]Histamine from human recombinant histamine H4 receptor expressed in HEK293 cells after 1 to […] by scintillation counting analysis; type: cell-based
[17] = target: Sodium-dependent dopamine transporter (Homo sapiens, UniProt Q01959); type: cell-based, HEK293
Sequence of Sodium-dependent dopamine transporter (Q01959 whole entry): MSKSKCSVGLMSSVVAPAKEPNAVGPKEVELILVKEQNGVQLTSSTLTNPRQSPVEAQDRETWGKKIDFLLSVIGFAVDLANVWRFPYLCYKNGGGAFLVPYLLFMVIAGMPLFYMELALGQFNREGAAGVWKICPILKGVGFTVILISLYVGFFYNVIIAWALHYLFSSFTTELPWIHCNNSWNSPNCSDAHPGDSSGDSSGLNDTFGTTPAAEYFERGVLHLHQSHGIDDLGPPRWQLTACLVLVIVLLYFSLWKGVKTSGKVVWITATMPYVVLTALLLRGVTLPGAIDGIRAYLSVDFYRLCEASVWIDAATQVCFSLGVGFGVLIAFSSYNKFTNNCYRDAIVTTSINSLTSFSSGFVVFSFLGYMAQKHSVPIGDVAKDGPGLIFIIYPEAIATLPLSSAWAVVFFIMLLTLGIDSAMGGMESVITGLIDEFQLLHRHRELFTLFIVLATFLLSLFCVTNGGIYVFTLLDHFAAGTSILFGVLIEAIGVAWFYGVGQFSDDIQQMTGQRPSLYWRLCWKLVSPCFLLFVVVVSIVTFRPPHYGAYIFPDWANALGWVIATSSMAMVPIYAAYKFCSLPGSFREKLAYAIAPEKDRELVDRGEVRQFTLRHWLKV

D(4) dopamine receptor = D(4) dopamine receptor (Homo sapiens, UniProt P21917); assay: Displacement of [3H]N-methylspiperone from human recombinant dopamine D4 receptor expressed in HEK293 cells after 1 to […] by scintillation counting analysis; type: cell-based
[18] = target: 5-hydroxytryptamine receptor 2C (Homo sapiens) (UniProt P28335); assay: Agonist activity at human 5-HT2C receptor expressed in HEK293 cells assessed as increase in calcium mobilization by FLIPR assay relative to 5-HT; type: functional, cell-based
[19] = target: T3, 5-hydroxytryptamine receptor 2B; assay: Agonist activity at human 5-HT2B receptor expressed in HEK293 cells assessed as increase in calcium mobilization by FLIPR assay relative to 5-HT; type: functional, cell-based

Sequence of Muscarinic acetylcholine receptor M1 (P11229 whole entry): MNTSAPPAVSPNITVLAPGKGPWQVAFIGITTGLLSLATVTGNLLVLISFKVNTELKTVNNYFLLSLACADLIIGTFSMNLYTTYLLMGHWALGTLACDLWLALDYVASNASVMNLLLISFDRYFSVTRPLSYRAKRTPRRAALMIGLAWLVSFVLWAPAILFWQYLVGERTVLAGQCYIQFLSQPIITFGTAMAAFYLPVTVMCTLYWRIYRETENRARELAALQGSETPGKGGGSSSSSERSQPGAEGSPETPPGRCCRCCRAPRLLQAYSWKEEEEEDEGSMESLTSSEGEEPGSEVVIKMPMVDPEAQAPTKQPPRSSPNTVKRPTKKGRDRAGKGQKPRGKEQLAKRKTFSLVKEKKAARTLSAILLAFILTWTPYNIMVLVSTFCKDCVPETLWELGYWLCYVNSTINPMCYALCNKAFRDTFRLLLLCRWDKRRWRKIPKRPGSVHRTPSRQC

Compound: CC(N)Cc1c[nH]c2ccccc12 (configuration not stated)
- Ki [1]: > 10 µM
- IC50 [2]: 2.34 µM
- Ki [2]: 0.812 µM
- Ki [3]: 0.166 µM
- Ki (D(1A) dopamine receptor): > 10 µM
- Ki [4]: > 10 µM
- Ki [5]: 0.909 µM
- Ki [6]: > 10 µM
- Ki [7]: > 10 µM
- Ki [8]: > 10 µM
- Ki (Cannabinoid receptor 2): > 10 µM
- Ki (Histamine H3 receptor): > 10 µM
- Ki [9]: > 10 µM
- Ki (Translocator protein): > 10 µM
- Ki (Histamine H2 receptor; read-out: pKi (converted)): > 10 µM
- Ki [10]: 1.13 µM
- Ki [11]: > 10 µM
- Emax [12]: 89%
- Ki [13]: > 10 µM
- Ki ([14]; read-out: pKi (converted)): > 10 µM
- Ki [15]: > 10 µM
- Ki ([16]; read-out: Ki): 3.78 µM
- Ki (Histamine H4 receptor): > 10 µM
- IC50 [17]: 1.86 µM
- Ki [17]: 0.666 µM
- Ki (D(4) dopamine receptor): > 10 µM
- Emax [18]: 95%
- Emax [19]: 84%

Compound: C=CCN(CC=C)CCc1c[nH]c2ccc(OC)cc12
- Ki [1]: > 10 µM
- IC50 [2]: 8.71 µM
- Ki [2]: 2.47 µM
- Ki [3]: 1.74 µM
- Ki (D(1A) dopamine receptor): > 10 µM
- Ki [4]: > 10 µM
- Ki [5]: 0.084 µM
- Ki [6]: > 10 µM
- Ki [7]: > 10 µM
- Ki [8]: > 10 µM
- Ki (Cannabinoid receptor 2): > 10 µM
- Ki (Histamine H3 receptor): > 10 µM
- Ki [9]: > 10 µM
- Ki (Translocator protein): > 10 µM
- Ki (Histamine H2 receptor; read-out: Ki): 4.25 µM
- Ki [10]: 0.679 µM
- Ki [11]: > 10 µM
- Emax [12]: 93%
- Ki [13]: > 10 µM
- Ki ([14]; read-out: Ki): 0.4 µM
- Ki ([14]; read-out: pKi (converted)): 0.398 µM
- Ki [15]: 0.034 µM
- Ki ([16]; read-out: pKi (converted)): > 10 µM
- Ki (Histamine H4 receptor): > 10 µM
- IC50 [17]: 32.4 µM
- Ki [17]: 17 µM
- Ki (D(4) dopamine receptor): > 10 µM
- Emax [18]: 101%
- Emax [19]: 95%
